Measured values published in paper PMC4579270, “Identification and Characterization of an Irreversible Inhibitor of CDK2” (Chemistry & Biology, 2015).

Legend:
Experiment in all cases: Dundee protein kinase screen
Format in all cases: biochemical
MLK3 = MLK3 (Homo sapiens, UniProt Q16584); conditions: MLK3, 1µM; read-out: %Remaining activity at 1µM NU6300
Description: (§1) Prior to determining its cellular activity, we carried out a screen to assess its selectivity against a panel of 131 protein kinases under conditions that would not distinguish between a reversible or irreversible mode of action. […] These 13 kinases and 29 additional kinases, selected for their known sensitivity to other inhibitors within the purine series, were then tested in a modified screening format in which the assay was repeated following a 4-hr pre-incubation (Table S3B). […] However, conformational flexibility around the active site may promote such an interaction with a residue from another part of the structure ([Martin et al., 2012]).
(§2) Table S3, Related to Figure 4. NCL-0006300 protein kinase selectivity. (A) NU6300 was tested at a single concentration of 1µM against 131 protein kinases present in a Dundee protein kinase screen (Bain et al., 2007). Values given are % activity remaining and are the average of duplicate measurements: 0-25% (red), 26-50% (yellow), 51-80% (black) and above 81% (green). The kinase domain sequences (as defined by UniProt) of […]
(§3) have a lysine residue at a position close to CDK2 Lys88 or Lys89. However, in the structure of tyrosine-protein kinase BTK (PDB ID: 3GEN) the residue equivalent to CDK2 Asp86 is Cys481 and therefore there is the potential for a covalent adduct to be formed through this side chain. Ephrin type-B receptor 3 (UniProt entry P54753) also encodes a cysteine residue (Cys717) that by sequence alignment would be predicted to be close to the CDK2 lysine pair. (B) Selected kinases were re-tested in the Dundee kinase screen against NU6300 at a single concentration of 0.5 µM both in the standard assay format and following a 4 hour pre-incubation in the presence of NU6300. Kinases which have very low activity after the 4 hour incubation so that results might not be wholly reliable are boxed in salmon. Kinases where the activity after a 4 hour pre-incubation is < 50% that in the standard assay format are highlighted in red.

PAK2 = PAK2 (Homo sapiens, UniProt Q13177); conditions: PAK2, 1µM; read-out: %Remaining activity at 1µM NU6300
Description: as §1, §2, §3

PKA = PKA (Homo sapiens, UniProt P17612); conditions: read-out: %Remaining activity at 1µM NU6300
Description: as §1, §2, §3

SIK3 = SIK3 (Homo sapiens, UniProt Q9Y2K2); conditions: SIK3, 1µM; read-out: %Remaining activity at 1µM NU6300
Description: as §1, §2, §3

TAO1 = biological target: T1, TAO1 (Homo sapiens, UniProt Q7L7X3); conditions: TAO1, 1µM; read-out: %Remaining activity at 1µM NU6300
T1 sequence (Q7L7X3 1-1001): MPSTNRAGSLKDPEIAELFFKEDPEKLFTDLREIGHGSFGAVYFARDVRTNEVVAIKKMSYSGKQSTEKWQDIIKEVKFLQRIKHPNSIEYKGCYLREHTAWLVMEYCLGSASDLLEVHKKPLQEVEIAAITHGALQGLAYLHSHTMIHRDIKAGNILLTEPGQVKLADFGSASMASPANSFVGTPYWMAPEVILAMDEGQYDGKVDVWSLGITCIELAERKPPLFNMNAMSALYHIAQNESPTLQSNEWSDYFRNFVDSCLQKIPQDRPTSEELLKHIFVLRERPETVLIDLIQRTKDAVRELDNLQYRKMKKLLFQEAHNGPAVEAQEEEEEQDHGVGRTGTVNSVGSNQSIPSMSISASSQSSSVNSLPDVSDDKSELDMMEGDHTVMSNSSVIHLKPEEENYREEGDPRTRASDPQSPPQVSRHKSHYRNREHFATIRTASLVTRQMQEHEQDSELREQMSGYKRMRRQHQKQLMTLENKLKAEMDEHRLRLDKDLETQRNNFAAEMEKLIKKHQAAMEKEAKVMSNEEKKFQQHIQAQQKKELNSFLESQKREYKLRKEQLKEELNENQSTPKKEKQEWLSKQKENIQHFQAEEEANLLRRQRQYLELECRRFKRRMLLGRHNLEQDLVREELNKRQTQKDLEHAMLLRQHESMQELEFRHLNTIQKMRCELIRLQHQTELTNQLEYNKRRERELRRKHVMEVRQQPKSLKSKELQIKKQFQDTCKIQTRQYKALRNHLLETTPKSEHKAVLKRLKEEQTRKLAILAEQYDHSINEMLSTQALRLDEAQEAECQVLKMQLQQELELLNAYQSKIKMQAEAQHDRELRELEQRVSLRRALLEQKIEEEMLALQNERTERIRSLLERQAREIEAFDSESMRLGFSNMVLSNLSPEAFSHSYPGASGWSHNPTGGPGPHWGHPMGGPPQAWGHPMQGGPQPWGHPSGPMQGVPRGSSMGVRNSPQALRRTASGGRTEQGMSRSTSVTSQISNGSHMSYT
Description: as §1, §2, §3

Chain of PAK2 (Q13177 whole entry): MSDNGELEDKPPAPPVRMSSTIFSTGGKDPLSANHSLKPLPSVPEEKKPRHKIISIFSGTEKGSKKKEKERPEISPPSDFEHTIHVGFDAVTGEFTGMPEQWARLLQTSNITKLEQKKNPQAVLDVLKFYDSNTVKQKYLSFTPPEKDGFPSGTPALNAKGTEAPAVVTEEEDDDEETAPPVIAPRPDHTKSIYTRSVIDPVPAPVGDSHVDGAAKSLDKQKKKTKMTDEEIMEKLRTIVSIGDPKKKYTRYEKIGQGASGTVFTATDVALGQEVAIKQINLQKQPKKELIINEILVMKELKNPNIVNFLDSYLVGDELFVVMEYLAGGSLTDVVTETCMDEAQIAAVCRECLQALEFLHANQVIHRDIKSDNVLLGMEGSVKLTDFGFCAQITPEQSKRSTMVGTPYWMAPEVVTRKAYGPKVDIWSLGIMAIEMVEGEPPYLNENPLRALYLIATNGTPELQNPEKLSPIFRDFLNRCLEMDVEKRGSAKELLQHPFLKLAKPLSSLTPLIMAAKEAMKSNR
Chain of SIK3 (Q9Y2K2 whole entry): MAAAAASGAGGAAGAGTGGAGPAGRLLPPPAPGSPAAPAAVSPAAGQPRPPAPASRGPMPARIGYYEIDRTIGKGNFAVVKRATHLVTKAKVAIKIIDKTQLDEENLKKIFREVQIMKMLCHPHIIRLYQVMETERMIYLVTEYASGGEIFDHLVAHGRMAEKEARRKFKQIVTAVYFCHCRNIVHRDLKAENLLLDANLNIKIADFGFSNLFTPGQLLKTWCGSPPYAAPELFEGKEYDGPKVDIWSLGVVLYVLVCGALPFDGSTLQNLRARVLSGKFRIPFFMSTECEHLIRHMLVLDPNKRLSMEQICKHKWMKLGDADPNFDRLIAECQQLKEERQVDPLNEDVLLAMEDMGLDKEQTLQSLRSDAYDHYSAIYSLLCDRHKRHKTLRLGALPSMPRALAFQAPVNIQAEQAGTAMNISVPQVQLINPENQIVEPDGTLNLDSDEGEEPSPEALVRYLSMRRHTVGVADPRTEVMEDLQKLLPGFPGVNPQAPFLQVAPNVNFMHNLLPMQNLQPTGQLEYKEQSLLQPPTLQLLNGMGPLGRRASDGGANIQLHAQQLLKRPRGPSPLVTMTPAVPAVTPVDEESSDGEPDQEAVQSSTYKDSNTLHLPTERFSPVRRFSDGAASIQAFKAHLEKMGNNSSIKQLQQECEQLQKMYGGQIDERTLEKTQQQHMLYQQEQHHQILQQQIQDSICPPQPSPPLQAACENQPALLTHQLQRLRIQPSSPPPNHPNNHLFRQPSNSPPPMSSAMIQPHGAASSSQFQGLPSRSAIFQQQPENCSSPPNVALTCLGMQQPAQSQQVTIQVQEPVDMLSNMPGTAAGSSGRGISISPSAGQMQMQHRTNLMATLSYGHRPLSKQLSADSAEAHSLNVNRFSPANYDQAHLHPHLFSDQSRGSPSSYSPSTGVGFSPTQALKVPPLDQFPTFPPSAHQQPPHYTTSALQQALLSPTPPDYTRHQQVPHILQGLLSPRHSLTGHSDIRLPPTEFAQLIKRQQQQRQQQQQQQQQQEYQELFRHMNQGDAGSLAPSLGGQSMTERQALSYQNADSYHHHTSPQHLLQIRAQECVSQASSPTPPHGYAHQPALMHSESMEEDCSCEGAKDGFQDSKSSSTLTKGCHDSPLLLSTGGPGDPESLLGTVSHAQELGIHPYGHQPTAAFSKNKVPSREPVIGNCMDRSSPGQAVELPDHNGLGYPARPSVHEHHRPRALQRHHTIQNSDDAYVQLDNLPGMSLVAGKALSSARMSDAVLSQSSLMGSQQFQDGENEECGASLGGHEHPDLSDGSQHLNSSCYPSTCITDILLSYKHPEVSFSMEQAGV
Chain of MLK3 (Q16584 whole entry): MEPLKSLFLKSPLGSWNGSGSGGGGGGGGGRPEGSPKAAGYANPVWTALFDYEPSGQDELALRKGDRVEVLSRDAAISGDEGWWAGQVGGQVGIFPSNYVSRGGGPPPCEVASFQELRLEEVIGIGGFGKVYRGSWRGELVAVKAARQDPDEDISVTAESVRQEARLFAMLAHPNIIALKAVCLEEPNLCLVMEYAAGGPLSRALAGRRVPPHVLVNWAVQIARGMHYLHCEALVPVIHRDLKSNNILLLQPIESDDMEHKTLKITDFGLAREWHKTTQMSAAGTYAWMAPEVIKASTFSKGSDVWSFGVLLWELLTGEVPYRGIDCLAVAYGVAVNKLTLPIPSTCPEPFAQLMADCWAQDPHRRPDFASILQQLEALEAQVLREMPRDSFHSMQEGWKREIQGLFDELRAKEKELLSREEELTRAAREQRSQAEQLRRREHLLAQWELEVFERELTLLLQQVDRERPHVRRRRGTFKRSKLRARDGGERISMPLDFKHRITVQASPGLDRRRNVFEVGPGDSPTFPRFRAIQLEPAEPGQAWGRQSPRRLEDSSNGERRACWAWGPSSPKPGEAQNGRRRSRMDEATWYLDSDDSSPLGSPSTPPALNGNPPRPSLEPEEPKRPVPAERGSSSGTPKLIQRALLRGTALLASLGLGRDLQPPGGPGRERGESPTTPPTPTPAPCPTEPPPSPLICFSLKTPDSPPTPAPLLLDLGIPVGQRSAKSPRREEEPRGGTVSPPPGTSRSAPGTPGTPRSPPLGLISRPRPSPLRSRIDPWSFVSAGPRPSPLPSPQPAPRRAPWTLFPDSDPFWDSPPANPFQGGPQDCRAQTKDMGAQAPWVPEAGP

`C=CS(=O)(=O)c1ccc(Nc2nc(OCC3CCCCC3)c3nc[nH]c3n2)cc1` [NU6300, 6-(cyclohexylmethoxy)-N-(4-(vinylsulfonyl)phenyl)-9H-purin-2-amine] was tested, and the remaining activity at 1 µM (MLK3) was 16%, the remaining activity at 1 µM (PAK2) was 92% and the remaining activity at 1 µM (PKA) was 88%. The remaining activity at 1 µM (SIK3) was 76% and the remaining activity at 1 µM (TAO1) was 27%.
